Assay results as given in patent US20250064799A1, “ORAL FORMULATIONS OF LEVOSIMENDAN FOR TREATING PULMONARY HYPERTENSION WITH HEART FAILURE WITH PRESERVED EJECTION FRACTION” (Tenax Therapeutics, Inc., priority 2021, published 2025).
“And” between values parts separate entries of the source, which are not always exact repeats. Identical values can stand only once.

Columns and labels:
Assay type in all cases: in vivo, human
patients with PH-HFpEF [1] = test: Resting heart rate and systolic arterial blood pressure, I.V. to oral levosimendan transition study
Description: Once that dose is determined, the study is identical with respect to the protocol. Since the I.V. formulation is weight based, and bypasses issues of bioavailability that may be affected by drug absorption, a dose escalation strategy is being adopted, guided by the individual patient response and any adverse events that may occur. Thus, the measurement of a six-minute walk test and patient questionnaire before and after the transition was to ensure that the patient continues to benefit. In addition, the monitoring of the patients' blood pressure and heart rate each day was to ensure that the oral dose remains safe.
The following considerations justified amending the TNX-LVO-05 study protocol: • 1. The amended TNX-LVO-05 protocol included the same patients enrolled in the original study. This was not a new study of the patients currently enrolled. This was open label, with no blinding of patients or physicians, and no control group. • 2. The scope and purpose of the study was unchanged, with the exception that it offered the further extension of treatment allowed by the transition to oral therapy (See item #4). • 3. The amendment clearly delineated a stepwise and thoughtful titration of patients from their intravenous to oral levosimendan to ensure the safe and effective transition of their levosimendan regimen. • a. Patients were started on 1 mg daily, representing a dose generally less than half their total weekly weight-based dose regimen. • b. Patients were titrated based on tolerance to the daily levosimendan paying attention to their symptoms of PH-HFpEF, and special attention to specific adverse events of interest, heart rate and blood pressure. A daily diary captured patient vitals and symptoms to aid their physician in titrating patients at two-week intervals. • c. Patient response also was evaluated by clinical measures to provide the physician with additional information on the patient's response. • d. While most patients were expected to receive 2-3 mg daily at the conclusion of the transition study, the dose escalation strategy was included to allow all patients to realize the same benefit as they did from the I.V. formulation. • e. To document the sustained efficacy of the oral formulation in these patients, patients had to undergo a six-minute walk test and patient questionnaire prior to and at the end of the transition study. • 4. The transition to oral levosimendan allowed for extension of the study from its initial two years to an additional three years. This offers these PH-HFpEF patients, with no other treatments available, to continue on a drug that they have responded to. • 5. The amendment required patients to sign a revised informed consent to ensure patients are completely informed concerning the transition amendment. Patients that preferred to continue with their weekly 24-hour I.V. regimen were allowed to continue through the initial two-year period of the study and then will be withdrawn.
Methods: Patients with PH-HFpEF who were in the open label extension study of the HELP Trial for more than 18 months volunteered to enroll in this transition protocol. Patients were initiated with 1 mg/day of oral levosimendan 5-7 days after the last IV levosimendan infusion. The oral dose was increased every 2 weeks by 1 mg/day to a maximum of 4 mg/day over an 8 week period. The highest daily dose was determined by the investigator based on clinical assessments of symptoms and side effects. The primary safety endpoints were change in resting heart rate and blood pressure from baseline to final study visit and all other adverse events. Secondary efficacy endpoints included change in six-minute walk distance (6MWD), serum brain natriuretic peptide (BNP) or NT-proBNP levels, and quality of life as assessed by Kansas City Cardiomyopathy Questionnaire clinical summary score (KCCQ-CS) and overall summary score (KCCQ-OS) from baseline to final study visit. […]

patients with PH-HFpEF [2] = test: HELP Study (TNX-LVO-04), weekly I.V. levosimendan for 6 weeks; set-up: HELP (WK 6) 6MWT: unit not given here
Description: The initial HELP Study is described in PCT International Application Publication No. WO 2021/126884 and Burkhoff, et al. (2021) “Levosimendan improves hemodynamics and exercise tolerance in PH-HFpEF: results of the randomized placebo-controlled HELP trial,” the entire contents of each of which are incorporated by reference. […] Among the goals of the extension study was to determine the dose of oral levosimendan that could maintain the efficacy of the weekly I.V. infusions of levosimendan.
PH-HFpEF is a progressive, fatal disease for which there are no approved therapies. All patients that the 6-week parent TNX-LVO-04 study (also referred to as the initial Help Study) underwent assessments of safety and efficacy in a double-blind randomized protocol. […] For these reasons, all participating patients were allowed to enter an open-label extension study (also referred to as TNX-LVO-05), to provide ongoing levosimendan therapy for two additional years. […]

patients with PH-HFpEF [3] = test: TNX-LVO-05 open-label extension, weekly 24-hour I.V. levosimendan: 6MWT and HR; set-up: TNX-LVO-05 (WK 24/48) 6MWT: unit not given beside the values; settings: individual patients, week 24/48
Description: PH-HFpEF is a progressive, fatal disease for which there are no approved therapies. All patients that the 6-week parent TNX-LVO-04 study (also referred to as the initial Help Study) underwent assessments of safety and efficacy in a double-blind randomized protocol. […] For these reasons, all participating patients were allowed to enter an open-label extension study (also referred to as TNX-LVO-05), to provide ongoing levosimendan therapy for two additional years.
The efficacy of the once weekly levosimendan regimen is supported by an active metabolite with an extended half-life of 70-80 hours. The metabolite peaks approximately two days after completing the weekly dose, declining through the remainder of the week. Data from the parent TNX-LVO-04 study indicate patients' response to therapy peaks early in the week, followed by a decline in keeping with exposure to the active metabolite. Patients that entered TNX-LVO-05 were required to undergo the insertion of a port-a-cath, learn how to self-administer the levosimendan infusion through a port-a-cath at home, and weekly administer IV levosimendan through their port-a-cath for 24 hours. It is important to note that patients who entered TNX-LVO-05 have chosen to continue their 24-hour weekly levosimendan dose regimen, acknowledging that patients recognize the benefits of the drug.

[4] = baseline to final study visit (week 6-8), oral levosimendan 3-4 mg/day
[5] = individual patients, Active arm of HELP Study, weekly I.V. levosimendan, week 6

C[C@@H]1CC(=O)NN=C1c1ccc(NN=C(C#N)C#N)cc1 [levosimendan]
mean change in resting heart rate (patients with PH-HFpEF [1]; [4]): 4.9 (SD±7.5) beats/min | mean change in systolic arterial blood pressure (patients with PH-HFpEF [1]; [4]): 4.1 (SD±12.6) mm Hg | Heart Rate Change from Baseline to Week 6 Oral, Mean (patients with PH-HFpEF [1]; n=18): 6.9 | Heart Rate Change from Baseline to Week 6 Oral, Median (patients with PH-HFpEF [1]; n=18): 5.5 | Heart Rate Change from Baseline to Week 6 Oral, Minimum (patients with PH-HFpEF [1]; n=18): −9 | SBP Change from baseline to Week 6 - Oral, Maximum (patients with PH-HFpEF [1]; n=18): 34 | SBP Change from baseline to Week 6 - Oral, Mean (patients with PH-HFpEF [1]; n=18): 4.1 | SBP Change from baseline to Week 6 - Oral, Median (patients with PH-HFpEF [1]; n=18): 1.5 | SBP Change from baseline to Week 6 - Oral, Minimum (patients with PH-HFpEF [1]; n=18): −15 | HELP (WK 6) 6MWT (patients with PH-HFpEF [2]; [5]): 311 and 397 and 270 and 218 and 232 and 401 and 196 and 482 | HELP (WK 6) HR (patients with PH-HFpEF [2]; [5]): 72 and 63 (2×) and 86 and 71 and 67 and 75 (2×) | average improvement of 6-minute walk distance (patients with PH-HFpEF [2]; levosimendan alone, PH-HFpEF patients): approximately 29 m | effect on pulmonary vascular resistance (patients with PH-HFpEF [2]; particularly upon chronic administration): did not decrease | TNX-LVO-05 (WK 24/48) 6MWT (patients with PH-HFpEF [3]): 310 and 180 and 312 and 255 and 347 and 393 and 313 and 91 and 274 and 213 and 225 and 174 and 590 | TNX-LVO-05 (WK 24/48) HR (patients with PH-HFpEF [3]): 62 (3×) and 64 and 85 (2×) and 70 and 69 and 74 and 58 and 73 and 82 and 75 and 87 and 65 and 78 and 77 and 91
